Legend:
[1] = method code SF-HPLC, from DOI: 10.1016/0378-5173(86)90195-x; conditions: pH 7.4
[2] = not given; remark: listed apart in the source
[3] = method code SF-AS, from DOI: 10.1021/jm00040a014, PMID: 8035429; conditions: pH 7.4
[4] = method code SF, from DOI: 10.1016/j.ejmech.2012.08.015, PMID: 22960698
[5] = method code SF-AS, from DOI: 10.1135/cccc19831077; conditions: pH 3.5
[6] = pH 7.4
[7] = method code SF, from Wang, L.; Li, H.; Wang, X.; Zhang, Z. (1993). Determination of aqueous solubilities and partition coefficients of substitutive ethylketone congeners by generator column. Huanjing Huaxue, 12(2)151-154.
[8] = method code SF-AS, from DOI: 10.1016/s0021-9673(00)91570-x; conditions: pH 3.4
[9] = method code SF-RC, from DOI: 10.1021/jm201482p, PMID: 22339166; conditions: pH 6.8
[10] = not given; remark: listed apart in the source
[11] = method code SF, from DOI: 10.1021/jm00140a005, PMID: 7035668; conditions: pH 12.0
[12] = not given; remark: listed apart in the source
[13] = method code SF-RC, from DOI: 10.1021/jm00238a003, PMID: 1120999; conditions: pH 7.0
[14] = method code SF-HPLC, from PMID: 1854437; conditions: pH 7.4
[15] = method code SF-AS, from PMID: 7912440
[16] = method code SF, from DOI: 10.1002/jps.2600830715, PMID: 7965680
[17] = method code SF-AS, from DOI: 10.1002/qsar.19830020405; conditions: pH 2.0
[18] = method code SF, from DOI: 10.1021/jm00167a034, PMID: 2329572; conditions: pH 7.4
[19] = not given; remark: listed apart in the source
[20] = method code SF-RC, from DOI: 10.1021/jf60186a044, PMID: 4688915
[21] = not given; remark: listed apart in the source
[22] = method code SF-AS, from Zsuzsa, H.; Nora, K. (1979). Study on the partition coefficient of acetanilides. Nehezvegyp. Kut. Intez. Kozl., 8, 139-146.

## CCCC(=O)OCOc1ccccc1C(=O)NCN1CCOCC1
[1]
  logD: 1.34

## CCCCc1c(C)oc(=O)c(CCCC)c1O
other
  logP: 0.79

## NC(=O)c1c(-c2ccc(OCCCc3c[nH]cn3)cc2)no[n+]1[O-]
[2]
  logP: 1.57

## CCOP(=O)(CC(=O)Nc1ccn(C2CSC(CO)O2)c(=O)n1)OCC (stereo unspecified)
[3]
  logD: 0.99

## COc1ccc(C(=O)CC2OC(=O)c3ccccc32)cc1OC (stereo unspecified)
[4]
  logP: 2.61

## O=C(O)Cc1ccc(OCCc2ccccc2)c(Cl)c1
[5]
  logD: 3.53

## Cc1ccc(C)n1NC(=O)Cc1ccc(N2CCOCC2)nn1
[6]
  logD: 1.64

## COc1ccc(C(=O)CSc2ccccc2)cc1
[7]
  logP: 2.2

## COc1cc(CC(=O)O)ccc1OCCCC(C)C
[8]
  logD: 3.3

## O=c1[nH]c(=O)n([C@H]2C[C@H](O)[C@@H](CO[P@]3(=O)OCc4ccccc4O3)O2)cc1I
[9]
  logD: 0.65

## CC(C)CC(O)C(O)C(N)NC1CCCCC1 (stereo unspecified)
[10]
  logP: 1.86

## COc1cc(Cc2cnc(N)nc2N)cc(OC)c1Oc1ccc(N)cc1
[11]
  logD: 0.9

## Cc1noc(C)c1NC1=CC(=O)C(=O)c2ccccc21
[12]
  logP: 1.51

## Nc1ccn([C@@H]2O[C@H](COC(=O)c3ccccc3)[C@@H](O)[C@@H]2O)c(=O)n1
[13]
  logD: 0.5

## CC(C)CC(O)C(O)C(CC1CCCCCC1)NC(=O)CN (stereo unspecified)
[10]
  logP: 1.52

## COP(=O)(OC)C(=O)Nc1ccn(C2CSC(COC(=O)P(=O)(OC)OC)O2)c(=O)n1 (stereo unspecified)
[3]
  logD: 0.72

## COc1cc(CC(=O)O)ccc1OCc1ccccc1
[5]
  logD: 2.59

## CCCCCc1onc(C)c1N=C1C=C(O)C(=O)c2ccccc21
[12]
  logP: 3.25

## CNC(=NC#N)NCCSCc1ncn(COC(=O)C(C)(C)C)c1C
[14]
  logD: 1.81

## Nc1ccn([C@@H]2O[C@H](COC(=O)c3cccnc3)[C@@H](O)[C@@H]2O)c(=O)n1
[13]
  logD: -0.6

## CC(=O)c1cc(C(C)(C)C)ccc1OCC(O)CN (stereo unspecified)
[15]
  logP: 0.38

## Cc1nonc1-c1ccc(OCCCc2c[nH]cn2)cc1
[2]
  logP: 2.92

## Cc1cccc2c1O[P@](=O)(OC[C@H]1O[C@@H](n3cc(I)c(=O)[nH]c3=O)C[C@@H]1O)OC2
[9]
  logD: 0.85

## CCCC(=O)OCn1cnc(CSCCNC(=NC#N)NC)c1C
[14]
  logD: 1.6

## CC(NC(=O)N(CCCl)N=O)C(=O)NC1CC(C)(C)N(O)C(C)(C)C1 (stereo unspecified)
[16]
  logP: 1.28

## CC(=O)OCOc1ccccc1C(=O)NCN1CCOCC1
[1]
  logD: 0.27

## O=C(CC1OC(=O)c2ccccc21)c1ccccc1 (stereo unspecified)
[4]
  logP: 2.96

## Cc1ccc(C(=O)c2ccc(CC(=O)O)n2C)cc1
[17]
  logD: 2.79

## Cc1cn(C2CC(N=[N+]=[N-])C(COC(=O)C(N)Cc3ccc(O)cc3)O2)c(=O)[nH]c1=O (stereo unspecified)
[18]
  logD: -0.03

## Nc1ccc(S(=O)(=O)Nc2ccnn2-c2ccccc2)cc1
[19]
  logP: 1.35

## Cc1ccc(C(c2ccc(C)cc2)C(Cl)(Cl)Cl)cc1
[20]
  logP: 3.57

## CC1(C)CC(NC(=O)CNC(=O)N(CCCl)N=O)CC(C)(C)N1O
[16]
  logP: 1.23

## N#Cc1ccc(OCC2CCN(CCF)CC2)cc1
[21]
  logP: 2.8

## Cc1ccc(C(c2ccc(Cl)cc2)C(Cl)(Cl)Cl)cc1 (stereo unspecified)
[20]
  logP: 4.47

## CCCCCC(C=O)(CCCC)c1oc(=O)c(CCCC)c(O)c1CCCC (stereo unspecified)
other
  logP: 1.52

## Cc1ccc(SCC(=O)c2ccc(C)cc2)cc1
[7]
  logP: 3.19

## Cc1cn([C@H]2C[C@H](N=[N+]=[N-])[C@@H](COC(=O)c3cccnc3)O2)c(=O)[nH]c1=O
[18]
  logD: 0.2

## CC(C(=O)O)c1cccc(C(=O)c2ccccc2)c1 (stereo unspecified)
[17]
  logD: 3.12

## N#Cc1ccc(OCC2CCN(CCCF)CC2)cc1
[21]
  logP: 2.8

## Cc1ccc(C)n1Nc1ccc(N2C[C@@H](C)O[C@@H](C)C2)nn1
[6]
  logD: 2.59

## COc1cc(Cc2cnc(N)nc2N)cc(OC)c1C
[11]
  logD: 2.14

## CC(=O)N(CC(=O)Nc1ccccc1)c1ccccc1
[22]
  logP: 2.01

## CC(=O)c1cc(C(C)C)ccc1OCC(O)CN (stereo unspecified)
[15]
  logP: 0.1

## O=C(O)Cc1ccc(OCc2ccccc2)cc1
[8]
  logD: 2.85

## O=C(CN(C(=O)C(Cl)Cl)c1ccccc1)Nc1ccccc1
[22]
  logP: 2.96

## O=C1c2c(O)cc(O)cc2O[C@H](c2ccc(O)c(O)c2)[C@H]1O
[19]
  logP: 1.4
